Values joined by “and” are separate entries in the source; they are usually repeats but may differ in a detail not shown here. Equal entries are not always repeated. “Also recorded” adds a separate entry of the source.
Columns and labels:
[1] = ICG distribution after administration in patient derived orthotopic xenograft (PDOX) mouse model; assay type: in vivo
Excerpt: (§1) We set up a study of PDT with ICG using patient derived orthotopic xenograft (PDOX) mouse model (FIG. 7). In the PDOX model, the mouse liver has human liver cancer. […] We then found the optimal laser wavelength that liver-ICG can absorb with maximum intensity which was 809 nm (FIG. 2). We set up the laser to treat HCC with PDT with the setting numbers in Table 1.

[2] = Optimal laser wavelength that liver-ICG can absorb with maximum intensity; assay type: physicochemical; settings: FIG. 2
Excerpt: as §1

[3] = tested on: HCC (human liver cancer); experiment: PDT with ICG (809 nm laser) in PDOX mouse model; assay type: in vivo
Excerpt: as §1

ICG localisation ([1]; at 0 hr after ICG administration): present in the whole body
ICG localisation ([1]; at 6 hrs after ICG administration): present in the liver
optimal laser wavelength that liver-ICG can absorb with maximum intensity [2]: 805-815 nm and 809 nm
Compound: CC1(C)C(/C=C/C=C/C=C/C=C2\N(CCCCS(=O)(=O)O)c3ccc4ccccc4c3C2(C)C)=[N+](CCCCS(=O)(=O)[O-])c2ccc3ccccc3c21 [ICG, indocyanine green]
ICG localisation ([1]; at 24 hrs after ICG administration): confined to a liver tumor; also recorded: confined in only HCC inside the liver
finding on MRI after treatment ([3]; 2 weeks after treatment, PDOX mouse): tumor necrosis
pathologic evaluation of HCC ([3]; specimen after PDT with ICG): apoptosis of HCC

— patent US20250065147A1, “SYSTEMS AND METHODS FOR PHOTODYNAMIC THERAPY” (Virginia Commonwealth University, priority 2023, published 2025)
